In patent publication US6861390B2, “Derivatives of UK-2A” (priority 2001, dated 2005) one finds pest or weed control, inhibition and melting point data, which are given here for 13 molecules.

Series [1] relates to Leptosphaeria nodorum (LEPTNO). Description: Glume Blotch of Wheat, whole plant 24 Hour Protectant (T2). Conditions: Parastagonospora nodorum; wheat (cultivar Yuma), sprayed at 100 ppm, inoculated after 24 hours; read-out: T2 LEPTNO in vivo 1 Day Protectant, control of fungal infection.
Series [2] relates to Phytophthora infestans (PHYTIN). Description: whole plant or invertebrate. Conditions: in Solanum lycopersicum, 24 h, read-out: T3 PHYTIN in vivo 1 Day Protectant, control of fungal infection.
Series [3] has as its system Puccinia recondita (PUCCRT). Description: Brown Rust of Wheat, whole plant 24 Hour Protectant (T5). As to conditions: wheat (cultivar Yuma), sprayed at 100 ppm, inoculated after 24 hours, read-out: T5 PUCCRT in vivo 1 Day Protectant, control of fungal infection.
For series [4], the system named is Stagonospora nodorum (Leptosphaeria nodorum, LEPTNO). Description: microbe, parasite or virus in culture. It is filed as cell-based. Conditions: Parastagonospora nodorum, read-out: T7 LEPTNO in vitro Growth Inhibition.
Series [5] deals with Phytophthora infestans (PHYTIN). Description: microbe, parasite or virus in culture. Type of series: cell-based. Conditions: in Secale cereale, read-out: T8 PHYTIN in vitro Growth Inhibition.
For series [6], the system named is Magnaporthe grisea (Pyricularia oryzae, PYRIOR). Description: microbe, parasite or virus in culture. As to conditions: read-out: T9 PYRIOR in vitro Growth Inhibition. Type of series: cell-based.
The test system of series [7] is Rhizoctonia solani (RHIZSO). Description: microbe, parasite or virus in culture. As to conditions: read-out: T10 RHIZSO in vitro Growth Inhibition. It is filed as cell-based.
The test system of series [8] is Mycosphaerella graminicola (Septoria tritici, SEPTTR). Description: microbe, parasite or virus in culture. Conditions: Zymoseptoria tritici, read-out: T11 SEPTTR in vitro Growth Inhibition. It is filed as cell-based.
A further series has as its system Ustilago maydis (USTIMA). Description: microbe, parasite or virus in culture. Type of series: cell-based. Conditions: Mycosarcoma maydis, read-out: T12 USTIMA in vitro Growth Inhibition.
Series [9] relates to Erysiphe graminis (ERYSGT). Description: Powdery Mildew of Wheat, whole plant 24 Hour Protectant (T1). As to conditions: Blumeria graminis, in Triticum aestivum, read-out: T1 ERYSGT in vivo 1 Day Protectant, control of fungal infection.
Method: Compound formulation was accomplished by dissolving technical materials in acetone, with serial dilutions then made in acetone to obtain desired concentrations. Final treatment volumes were obtained by adding 9 volumes 0.01% Triton X-100.
Powdery Mildew of Wheat (Erysiphe graminis—ERYSGT) (24 Hour Protectant): Wheat (cultivar Monon) was grown in a soilless peat-based potting mixture (“Metromix”) and mineral soil (50/50 mix) until the seedlings were 10-20 cm tall. These plants were then sprayed to run-off with the test compound at a rate of 100 ppm. After 24 hours the test plants were inoculated by dusting with conidia from powdery mildew infected wheat plants. The plants were then transferred to the greenhouse until disease developed on the untreated control plants.
For series [10], the system named is Septoria tritici (SEPTTR). Description: Leaf Blotch of Wheat, whole plant 24 Hour Protectant (T6). As to conditions: Zymoseptoria tritici; wheat (cultivar Monon), sprayed at 100 ppm, inoculated after 24 hours; read-out: T6 SEPTTR in vivo 1 Day Protectant, control of fungal infection.

SMILES strings stand for the structures.

`COCOc1c(OC)ccnc1C(=O)N[C@H]1COC(=O)[C@H](Cc2ccccc2)[C@@H](OC(=O)C(C)C)[C@H](C)OC1=O` [Compound 4]: the melting point – broadly, the temperature, or range, at which the solid turns liquid – is 146 to 147 °C. The pest or weed control at 100 ppm in series [1] lay within 75 to 100%. For the same molecule, the pest or weed control at 100 ppm in series [2] is less than 25%. In series [3], the pest or weed control at 100 ppm was in the range of 75 to 100%. In addition, the inhibition (in general, the drop in the measured response relative to a control, in per cent) at 25 ppm in series [4] is greater than 80%. In addition, the inhibition at 25 ppm in series [5] is less than 80%. Further, the inhibition at 25 ppm in [6] is greater than 80%. In series [7], the inhibition at 25 ppm is less than 80%. Besides, the inhibition at 25 ppm in [8] was less than 80%. For the same molecule, the inhibition at 25 ppm in the series on Ustilago maydis (USTIMA) is less than 80%. Also, the pest or weed control at 100 ppm in series [9] was in the range of 25 to 74%.
For the molecule `CCOCOc1c(OC)ccnc1C(=O)N[C@H]1COC(=O)[C@H](Cc2ccccc2)[C@@H](OC(=O)C(C)C)[C@H](C)OC1=O` [Compound 5], the melting point lay in the range of 60 to 62 °C. Besides, the pest or weed control at 100 ppm in [1] was in the range of 75 to 100%. Besides, the pest or weed control at 100 ppm in series [2] was less than 25%. The pest or weed control at 100 ppm in series [3] lay within 75 to 100%. Also, the pest or weed control at 100 ppm in [10] was in the range of 75 to 100%. In addition, in series [4], the inhibition at 25 ppm is greater than 80%. The inhibition at 25 ppm in [5] was less than 80%. The inhibition at 25 ppm in series [6] is less than 80%. In [7], the inhibition at 25 ppm is less than 80%. Moreover, the inhibition at 25 ppm in series [8] is less than 80%. For the same molecule, the inhibition at 25 ppm in the series on Ustilago maydis (USTIMA) is less than 80%. The pest or weed control at 100 ppm in [9] is 25 to 74%.
`COc1ccnc(C(=O)N[C@H]2COC(=O)[C@H](Cc3ccccc3)[C@@H](OC(=O)C(C)C)[C@H](C)OC2=O)c1OCOCc1ccccc1` [Compound 10] had a melting point of 56 to 60 °C. In addition, the pest or weed control at 100 ppm in series [1] lay within 75 to 100%. The pest or weed control at 100 ppm in series [2] was less than 25%. In series [3], the pest or weed control at 100 ppm is 75 to 100%. Further, the inhibition at 25 ppm in [4] is greater than 80%. Moreover, in series [5], the inhibition at 25 ppm was greater than 80%. Also, the inhibition at 25 ppm in series [6] is less than 80%. For the same molecule, the inhibition at 25 ppm in series [7] was less than 80%. In addition, in series [8], the inhibition at 25 ppm was greater than 80%. The inhibition at 25 ppm in the series with Ustilago maydis (USTIMA) is less than 80%. Also, the pest or weed control at 100 ppm in series [9] is less than 25%.
The molecule `COc1ccnc(C(=O)N[C@H]2COC(=O)[C@H](Cc3ccccc3)[C@@H](OC(=O)C(C)C)[C@H](C)OC2=O)c1OCSC` [Compound 18] came in with a melting point of 146 to 148 °C. Further, the pest or weed control at 100 ppm in series [1] lay in the range of 75 to 100%. Besides, in series [2], the pest or weed control at 100 ppm is less than 25%. Besides, the pest or weed control at 100 ppm in series [3] was in the range of 75 to 100%. Moreover, in series [4], the inhibition at 25 ppm was greater than 80%. Moreover, the inhibition at 25 ppm in series [5] is less than 80%. Further, the inhibition at 25 ppm in series [6] was greater than 80%. Besides, the inhibition at 25 ppm in series [7] is greater than 80%. Moreover, in series [8], the inhibition at 25 ppm is greater than 80%. Also, the inhibition at 25 ppm with Ustilago maydis (USTIMA) was less than 80%. Also, in [9], the pest or weed control at 100 ppm is less than 25%.
In turn, `COc1ccnc(C(=O)N[C@H]2COC(=O)[C@H](Cc3ccccc3)[C@@H](OC(=O)C(C)C)[C@H](C)OC2=O)c1OCSc1ccccc1` [Compound 19] showed a melting point of 133 to 135 °C. Further, in series [1], the pest or weed control at 100 ppm fell in the range of 75 to 100%. Besides, in [2], the pest or weed control at 100 ppm was less than 25%. Besides, the pest or weed control at 100 ppm in [3] lay in the range of 75 to 100%. Further, the inhibition at 25 ppm in [4] is greater than 80%. The inhibition at 25 ppm in series [5] is less than 80%. The inhibition at 25 ppm in series [6] was greater than 80%. Also, in [7], the inhibition at 25 ppm is greater than 80%. The inhibition at 25 ppm in [8] is greater than 80%. In the series with Ustilago maydis (USTIMA), the inhibition at 25 ppm was less than 80%. Besides, the pest or weed control at 100 ppm in [9] is less than 25%.
The molecule `CCCO[C@H]1[C@H](C)OC(=O)[C@@H](NC(=O)c2nccc(OC)c2OCOC(C)=O)COC(=O)[C@@H]1Cc1ccccc1` [Compound 51] registered a melting point of 65 to 120 °C. Moreover, the pest or weed control at 100 ppm in series [1] is 75 to 100%. The pest or weed control at 100 ppm in [2] is less than 25%. In [3], the pest or weed control at 100 ppm was in the range of 75 to 100%. For the same molecule, the inhibition at 25 ppm in series [4] is greater than 80%. Further, the inhibition at 25 ppm in series [5] is less than 80%. For the same molecule, the inhibition at 25 ppm in series [6] is greater than 80%. Further, in series [7], the inhibition at 25 ppm was greater than 80%. Moreover, the inhibition at 25 ppm in [8] was greater than 80%. Besides, in the series with Ustilago maydis (USTIMA), the inhibition at 25 ppm is less than 80%. In addition, the pest or weed control at 100 ppm in series [9] lay within 75 to 100%.
Turning to `C=C(C)CO[C@H]1[C@H](C)OC(=O)[C@@H](NC(=O)c2nccc(OC)c2OCOC(C)=O)COC(=O)[C@@H]1Cc1ccccc1` [Compound 53], the melting point lay within 102 to 104 °C. Also, the pest or weed control at 100 ppm in series [1] lay within 75 to 100%. Besides, in series [2], the pest or weed control at 100 ppm was less than 25%. Moreover, in [3], the pest or weed control at 100 ppm lay in the range of 75 to 100%. Moreover, the inhibition at 25 ppm in series [4] was greater than 80%. Also, the inhibition at 25 ppm in series [5] was greater than 80%. Moreover, in series [6], the inhibition at 25 ppm is greater than 80%. In [7], the inhibition at 25 ppm is less than 80%. Moreover, the inhibition at 25 ppm in [8] is greater than 80%. The inhibition at 25 ppm in the series with Ustilago maydis (USTIMA) is less than 80%. Further, the pest or weed control at 100 ppm in [9] is less than 25%.
`CCCO[C@H]1[C@H](C)OC(=O)[C@@H](NC(=O)c2nccc(OC)c2OCOC(=O)C2CCCC2)COC(=O)[C@@H]1Cc1ccccc1` [Compound 62]: the pest or weed control at 100 ppm in series [1] was 75 to 100%; in [2], less than 25%; in series [3] it was 75 to 100%; in series [10] it was 75 to 100%; in series [9], 75 to 100%. In addition, the inhibition at 25 ppm is greater than 80% in [4]; less than 80% in series [5]; less than 80% in series [6]; less than 80% in series [7]; greater than 80% in [8]; greater than 80% with Ustilago maydis (USTIMA).
With `CCCC(=O)OCOc1c(OC)ccnc1C(=O)N[C@H]1COC(=O)[C@H](Cc2ccccc2)[C@@H](OCC(C)C)[C@H](C)OC1=O` [Compound 63], the pest or weed control at 100 ppm is 75 to 100% in series [1]; less than 25% in [2]; 75 to 100% in series [3]; 75 to 100% in [10]; 75 to 100% in series [9]. The inhibition at 25 ppm in [4] is greater than 80%; in series [5], less than 80%; in series [6], greater than 80%; in series [7], less than 80%; in series [8], greater than 80%; in the series on Ustilago maydis (USTIMA), less than 80%.
Take `CCCO[C@H]1[C@H](C)OC(=O)[C@@H](NC(=O)c2nccc(OC)c2OCOC(=O)CCC)COC(=O)[C@@H]1Cc1ccccc1` [Compound 64]: the pest or weed control at 100 ppm in series [1] was 75 to 100%; in [2] it was less than 25%; in series [3] it was 75 to 100%; in [10], 75 to 100%; in series [9], 75 to 100%. For the same molecule, the inhibition at 25 ppm in series [4] is greater than 80%; in [5], less than 80%; in series [6] it was greater than 80%; in series [7], less than 80%; in series [8], greater than 80%; in the series with Ustilago maydis (USTIMA) it was less than 80%.
Turning to `CCOCC(=O)OCOc1c(OC)ccnc1C(=O)N[C@H]1COC(=O)[C@H](Cc2ccccc2)[C@@H](OCSC)[C@H](C)OC1=O` [Compound 72], the pest or weed control at 100 ppm in series [1] was 75 to 100%; in [2], less than 25%; in series [3] it was 75 to 100%; in series [10], 25 to 74%; in series [9], 25 to 74%. Moreover, the inhibition at 25 ppm in series [4] is greater than 80%; in [5] it was less than 80%; in [6], greater than 80%; in series [7], less than 80%; in series [8] it was greater than 80%; with Ustilago maydis (USTIMA), greater than 80%.
With `COc1ccnc(C(=O)N[C@H]2COC(=O)[C@H](Cc3ccccc3)[C@@H](OCSC)[C@H](C)OC2=O)c1OCOC(=O)C1CCCC1` [Compound 73], the pest or weed control at 100 ppm in series [1] was 75 to 100%; in [2], less than 25%; in series [3], 75 to 100%; in series [10] it was 75 to 100%; in series [9], 25 to 74%. Also, the inhibition at 25 ppm in series [4] is greater than 80%; in [5], less than 80%; in series [6], greater than 80%; in [7], less than 80%; in series [8] it was greater than 80%; with Ustilago maydis (USTIMA), greater than 80%.
Take `COCCOCC(=O)OCOc1c(OC)ccnc1C(=O)N[C@H]1COC(=O)[C@H](Cc2ccccc2)[C@@H](OCSC)[C@H](C)OC1=O` [Compound 74]: the pest or weed control at 100 ppm in series [1] is 75 to 100%; in series [2], less than 25%; in series [3], 75 to 100%; in [10], 25 to 74%; in [9] it was 25 to 74%. The inhibition at 25 ppm is greater than 80% in series [4]; less than 80% in [5]; greater than 80% in series [6]; less than 80% in series [7]; greater than 80% in series [8]; greater than 80% in the series on Ustilago maydis (USTIMA).
